Data on two molecules can be found in paper PMC103669 (BMC Pharmacology, 2002).

Structures are written as SMILES.

For test [1], the target named is opossum alpha-2C adrenergic receptor (Didelphis virginiana, UniProt P35405, S312A/T311V). The test is described as follows: biochemical.
Test [2] concerns the target T1, opossum alpha-2C adrenergic receptor (Didelphis virginiana, UniProt P35405, S309A/S310A/S312A/T311V). Kind of test: biochemical.
The target of test [3] is T2, opossum alpha-2C adrenergic receptor (Didelphis virginiana, UniProt P35405).
T2 sequence (P35405 1-469): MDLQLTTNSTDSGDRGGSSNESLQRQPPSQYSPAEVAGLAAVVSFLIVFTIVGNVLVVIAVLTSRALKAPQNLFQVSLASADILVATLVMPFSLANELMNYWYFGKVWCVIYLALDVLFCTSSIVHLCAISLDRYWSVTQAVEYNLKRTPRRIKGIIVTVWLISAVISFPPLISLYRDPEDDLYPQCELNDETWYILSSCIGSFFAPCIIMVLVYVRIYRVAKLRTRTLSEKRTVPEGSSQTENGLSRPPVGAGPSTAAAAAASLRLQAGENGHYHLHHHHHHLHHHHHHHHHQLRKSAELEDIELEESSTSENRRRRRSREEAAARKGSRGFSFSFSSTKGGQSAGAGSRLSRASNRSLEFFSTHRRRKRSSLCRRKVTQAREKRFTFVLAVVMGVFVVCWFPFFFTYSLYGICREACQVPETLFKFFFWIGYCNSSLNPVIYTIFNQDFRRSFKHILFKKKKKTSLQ
Kind of test: [3H]rauwolscine saturation binding, CHO membranes, filtration.

In test [4] the target is T1, opossum alpha-2C adrenergic receptor. Kind of test: biochemical. This is another data set of the same source.

T1 sequence (P35405 whole entry S309A/S310A/T311V/S312A): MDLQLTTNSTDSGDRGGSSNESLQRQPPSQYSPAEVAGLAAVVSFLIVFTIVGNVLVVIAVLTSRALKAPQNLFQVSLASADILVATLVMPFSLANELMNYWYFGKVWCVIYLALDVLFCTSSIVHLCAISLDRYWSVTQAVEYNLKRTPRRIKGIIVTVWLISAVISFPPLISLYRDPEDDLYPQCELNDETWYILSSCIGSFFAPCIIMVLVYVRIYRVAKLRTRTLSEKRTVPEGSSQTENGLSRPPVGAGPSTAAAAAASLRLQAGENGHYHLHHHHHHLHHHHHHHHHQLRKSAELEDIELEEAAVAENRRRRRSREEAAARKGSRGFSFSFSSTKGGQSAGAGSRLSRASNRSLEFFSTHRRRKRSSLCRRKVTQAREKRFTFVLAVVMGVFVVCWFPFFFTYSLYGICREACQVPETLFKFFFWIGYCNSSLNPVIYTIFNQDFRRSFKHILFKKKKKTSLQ
Sequence of opossum alpha-2C adrenergic receptor (Didelphis virginiana, UniProt P35405, S312A/T311V) (P35405 whole entry T311V/S312A): as the sequence (P35405 whole entry S309A/S310A/T311V/S312A) above, with A309S, A310S counted along it

One may read the Kd as the concentration at which binding is half-saturated. The low end stands for tighter binding, the high end for weaker binding. As to `COC(=O)[C@H]1[C@H]2C[C@H]3c4[nH]c5ccccc5c4CCN3C[C@H]2CC[C@@H]1O` [[^3H]rauwolscine], the equilibrium dissociation constant (Kd) in test [1] amounted to 105 ± 5 pM; in test [2], 118 ± 12 pM; in test [3], 113 ± 8 pM.
By Ki is commonly meant the dissociation constant of the complex between target and ligand, obtained from inhibition or displacement. A high value points to a looser hold on the target. For the molecule `NC[C@H](O)c1ccc(O)c(O)c1` [norepinephrine], in test [4], the inhibition constant Ki amounted to 71000 ± 5000 pM.
